Test systems include HCC-2998 colon; MDA-N; NCI-H23 lung; NCI-H522 lung; OVCAR-8 ovarian; RXF 393 renal; SK-MEL-28 melanoma; SNB-75 CNS; T-47D breast; UO-31 renal.
Test in all cases: DTP human tumour cell line panel, 48 h

Structures are written as SMILES.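 In this assay, cells in 96-well plates receive the compound at five concentrations for 48 hours. Endpoints are linearly interpolated between the surrounding concentrations. GI50: concentration for 50% inhibition of growth. TGI is the concentration that stops growth completely.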

As for `COc1ccc2c(c1)-c1c(c3cc(OC)ccc3n1CCN(C)C)CC2`, the TGI – broadly, the concentration at which net growth stops – amounted to 20.2 µM with HCC-2998 colon; 27.9 µM in the test on MDA-N; 29.6 µM with NCI-H23 lung; 34.1 µM in the test with NCI-H522 lung; 32.6 µM in the test with OVCAR-8 ovarian; 28.2 µM in the test on RXF 393 renal. For the same molecule, the TGI in the test with SK-MEL-28 melanoma came to 30.4 µM; in the test with SNB-75 CNS, 43.4 µM; in the test on T-47D breast, 41 µM; in the test on UO-31 renal, 23.1 µM.

For the molecule `O=CN1CCN(C(=O)c2ccco2)C1=S`, the GI50 (in general, the concentration at which growth is held to half of that of the control) in the test on HCC-2998 colon was 13.4 µM. For the same molecule, the TGI in the test on HCC-2998 colon was determined as 27.2 µM; with MDA-N, 24.7 µM; in the test with NCI-H23 lung it was 40.4 µM; in the test on NCI-H522 lung it was 17.4 µM; in the test with OVCAR-8 ovarian it was 59 µM; in the test on RXF 393 renal it was 20.1 µM. The TGI was more than 57.6 µM with SK-MEL-28 melanoma, 34.8 µM in the test with SNB-75 CNS, 19.3 µM in the test with T-47D breast and 13.8 µM in the test with UO-31 renal.

Turning to `O=C(Sc1c(-c2ccccc2)c(=O)n(-c2ccccc2)c(=S)n1-c1ccccc1)c1ccco1`, the TGI in the test on HCC-2998 colon, in the test on MDA-N, in the test with NCI-H23 lung, in the test with NCI-H522 lung, with OVCAR-8 ovarian and in the test with RXF 393 renal was more than 100 µM throughout. Moreover, the TGI in the test on SK-MEL-28 melanoma, in the test with SNB-75 CNS, in the test with T-47D breast and in the test on UO-31 renal was more than 100 µM each time.

Take `O=c1ccn(-c2ccccn2)c(=O)n1-c1ccccn1`: the TGI with HCC-2998 colon, in the test with MDA-N, with NCI-H23 lung, in the test with NCI-H522 lung, in the test on OVCAR-8 ovarian and with RXF 393 renal was more than 100 µM in each case. In addition, the TGI with SK-MEL-28 melanoma, in the test with SNB-75 CNS, in the test on T-47D breast and in the test with UO-31 renal was more than 100 µM in each case.

Take `CCCCCCCCCCCCNC(=O)CCC(NC(=O)c1ccc(N(C)Cc2cnc3nc(N)nc(N)c3n2)cc1)C(=O)NCCCCCCCCCCCC` (stereo unspecified): the TGI is more than 100 µM in the test with HCC-2998 colon; more than 100 µM in the test on MDA-N; more than 100 µM in the test with NCI-H23 lung; more than 100 µM with NCI-H522 lung; more than 100 µM in the test with OVCAR-8 ovarian; 43.3 µM in the test on RXF 393 renal. Further, the TGI with SK-MEL-28 melanoma was more than 100 µM; in the test on SNB-75 CNS, 20.8 µM; in the test with T-47D breast it was 61.5 µM; in the test with UO-31 renal, more than 100 µM.

As for `S=c1[nH]nc(Cn2c3ccc(Br)cc3c3nc4ccccc4nc32)n1C1CCCCC1`, the TGI in the test with HCC-2998 colon was 61 µM; with MDA-N, more than 93.7 µM; in the test on NCI-H23 lung, 42.1 µM; with NCI-H522 lung, 67.4 µM; in the test with OVCAR-8 ovarian, more than 67.5 µM; in the test with RXF 393 renal, 70.1 µM. Also, the concentration for total growth inhibition (TGI) was more than 56.8 µM in the test on SK-MEL-28 melanoma, more than 100 µM in the test with SNB-75 CNS, more than 100 µM in the test on T-47D breast and more than 76.2 µM with UO-31 renal.

For `COc1cc2c3cc1Oc1c(OC)c(OC)cc4c1C(Cc1ccc(O)c(c1)Oc1ccc(cc1)CC3N(C)CC2)CN(C)C4` (stereo unspecified), the TGI in the test on HCC-2998 colon is 13.7 µM; in the test with MDA-N it was 24.5 µM; with NCI-H23 lung, 34.9 µM; with NCI-H522 lung, 26.2 µM; in the test on OVCAR-8 ovarian, 31.3 µM; in the test on RXF 393 renal it was 23.4 µM. For the same molecule, the TGI in the test with SK-MEL-28 melanoma came to 31.9 µM; with SNB-75 CNS, 29.9 µM; with T-47D breast, 69.6 µM; in the test on UO-31 renal, 29.8 µM.

For `NC(N)=NS(=O)(=O)c1ccc(NC(=O)c2cccc3c(NNc4ccc(S(N)(=O)=O)cc4)c4ccccc4nc23)cc1`, the TGI in the test on HCC-2998 colon is more than 100 µM; with MDA-N, more than 100 µM; in the test with NCI-H23 lung, more than 100 µM; with NCI-H522 lung it was 91.6 µM; in the test with OVCAR-8 ovarian it was more than 100 µM; in the test on RXF 393 renal it was more than 100 µM. In addition, the TGI was more than 100 µM with SK-MEL-28 melanoma, more than 100 µM with SNB-75 CNS, 79.1 µM with T-47D breast and more than 100 µM in the test with UO-31 renal.

Regarding `Nc1c(S(N)(=O)=O)cc(S(N)(=O)=O)cc1S(N)(=O)=O`, the total growth inhibition concentration (TGI) in the test on HCC-2998 colon, with MDA-N, with NCI-H23 lung, with NCI-H522 lung, in the test on OVCAR-8 ovarian and with RXF 393 renal was more than 100 µM throughout. In addition, the TGI with SK-MEL-28 melanoma, in the test on SNB-75 CNS, with T-47D breast and in the test on UO-31 renal was more than 100 µM in each case.

For the molecule `O=P1(C(O)/C=C/c2ccccc2)N(Cc2ccccc2)[C@@H]2CCCC[C@H]2N1Cc1ccccc1` (stereo partly specified), the concentration for total growth inhibition (TGI) in the test on HCC-2998 colon came to 14.4 µM; in the test with MDA-N it was 18.2 µM; in the test with NCI-H23 lung, 21.5 µM; in the test on NCI-H522 lung, 12.1 µM; in the test on OVCAR-8 ovarian, 13.2 µM; in the test with RXF 393 renal it was 23.5 µM. In addition, the TGI in the test with SK-MEL-28 melanoma is 28.1 µM; with SNB-75 CNS, 54.5 µM; in the test on T-47D breast, 35.7 µM; in the test on UO-31 renal, 17.7 µM.

On to `O=[N+]([O-])/C(Cl)=C(/C(Cl)=C(Cl)Cl)N1CCCCC1`, for which the TGI in the test on HCC-2998 colon was found to be 33.4 µM; with MDA-N it was 23.9 µM; in the test with NCI-H23 lung it was 22.2 µM; in the test with NCI-H522 lung it was 23.2 µM; in the test on OVCAR-8 ovarian, 22.2 µM; with RXF 393 renal, 20.6 µM. In addition, the TGI in the test with SK-MEL-28 melanoma was determined as 30.3 µM; with SNB-75 CNS, 56 µM; in the test on T-47D breast it was 34 µM; with UO-31 renal, 25.7 µM.
